Assay results: US9475848B2 (priority 2012, dated 2016)
“And” between values parts separate entries of the source, which are not always exact repeats. Equal entries are not always repeated. Where two headings read alike, the source gives them in different places.

Legend:
Bordetella pertussis = type: cell-based; settings: for accumulation of bvg^− cells: MgSO4 20 mM (series C), niacin 0.604 g/L (series B) or both, compared with series A
B. pertussis [1] = type: cell-based, Bordetella pertussis
B. pertussis [2] = tested on: B. pertussis
[3] = tested on: pertussis toxin (PT) production; type: cell-based, Bordetella pertussis
[4] = COQ255: niacin 0.604 g/L in first two pre-cultures, 0.004 g/L thereafter

Structure (SMILES): O=S(=O)([O-])[O-].[Mg+2] [MgSO4]
- accumulation of bvg^− cells (Bordetella pertussis): significantly lower accumulation of bvg^− cells
- Proportion of bvg^− cells (Bordetella pertussis; Series C: MgSO4 20 mM, niacin 0.004 g/L, end of fourth culture, start 1%): 2%
- Proportion of bvg^− cells (Bordetella pertussis; Series C: MgSO4 20 mM, niacin 0.004 g/L, end of third culture, start 1%): 3%

Structure (SMILES): O=C(O)[C@@H]1CCCN1 [proline]
- Final biomass (OD650 nm) (B. pertussis [1]; COQ278: proline 12 g/L, sodium glutamate 7 g/L, NaCl 0 g/L): 11.3 OD650nm
- Final biomass (OD650 nm) (B. pertussis [1]; COQ280: proline 1 g/L, sodium glutamate 20 g/L, NaCl 0 g/L): 9.7 OD650nm

Structure (SMILES): O=C(O)c1cccnc1 [niacin]
- Final biomass (OD650 nm) (B. pertussis [1]; [4]): 7.2 OD650 nm
- Total fermentation time (B. pertussis [1]; [4]): 43 h
- Final proportion of bvg^− in 20 L-fermentor (B. pertussis [2]): 13%
- Initial proportion of bvg^− in 20 L-fermentor (B. pertussis [2]): 3%
- PT concentration at end of fermentation [3]: 22.8 mg/L
- Specific PT production at end of fermentation [3]: 3.2 mg L^−1 OD650 nm^−1
- number of generations for which control of bvg^− take-over is effective (Bordetella pertussis): up to 100 generations
- accumulation of bvg^− cells (Bordetella pertussis): significantly lower accumulation of bvg^− cells
- Proportion of bvg^− cells (Bordetella pertussis; Series A: niacin 0.004 g/L, no MgSO4, end of fourth culture, start 1%): 8%
- Proportion of bvg^− cells (Bordetella pertussis; Series A: niacin 0.004 g/L, no MgSO4, end of third culture, start 1%): 5%
- Proportion of bvg^− cells (Bordetella pertussis; Series B: niacin 0.604 g/L, no MgSO4, end of fourth culture, start 1%): 2%
- Proportion of bvg^− cells (Bordetella pertussis; Series B: niacin 0.604 g/L, no MgSO4, end of third culture, start 1%): 1%
- Proportion of bvg^− cells (Bordetella pertussis; Table 4 Series A: niacin 0.004 g/L, end of first culture, start 6%): 9%
- Proportion of bvg^− cells (Bordetella pertussis; Table 4 Series A: niacin 0.004 g/L, end of second culture, start 6%): 14%
- Proportion of bvg^− cells (Bordetella pertussis; Table 4 Series A: niacin 0.004 g/L, end of third culture, start 6%): 24%
- Proportion of bvg^− cells (Bordetella pertussis; Table 4 Series B: niacin 0.021 g/L, end of first culture, start 6%): 9%
- Proportion of bvg^− cells (Bordetella pertussis; Table 4 Series B: niacin 0.021 g/L, end of second culture, start 6%): 15%
- Proportion of bvg^− cells (Bordetella pertussis; Table 4 Series B: niacin 0.021 g/L, end of third culture, start 6%): 19%
- Proportion of bvg^− cells (Bordetella pertussis; Table 4 Series C: niacin 0.113 g/L, end of first culture, start 6%): 10%
- Proportion of bvg^− cells (Bordetella pertussis; Table 4 Series C: niacin 0.113 g/L, end of second culture, start 6%): 14%
- Proportion of bvg^− cells (Bordetella pertussis; Table 4 Series C: niacin 0.113 g/L, end of third culture, start 6%): 21%
- Proportion of bvg^− cells (Bordetella pertussis; Table 4 Series D: niacin 0.604 g/L, end of first culture, start 6%): 5%
- Proportion of bvg^− cells (Bordetella pertussis; Table 4 Series D: niacin 0.604 g/L, end of second culture, start 6%): 5%
- Proportion of bvg^− cells (Bordetella pertussis; Table 4 Series D: niacin 0.604 g/L, end of third culture, start 6%): 4%
- controlling the take-over of bvg^− cells (Bordetella pertussis; low niacin concentrations): less effective
- control of the take-over of bvg^− cells (Bordetella pertussis; niacin 0.6 g/L rather than 0.004 g/L, independently of initial proportion of bvg− cells): effectively control the take-over of bvg^− cells
- bvg^− take-over (Bordetella pertussis; niacin 0.604 g/L, up to 15 generations): no bvg^− take-over was observed

Structure (SMILES): N[C@@H](CS)C(=O)O [L-cysteine]
- Final biomass (OD650 nm) (B. pertussis [1]; COQ280: L-cysteine 0.04 g/L): 9.7 OD650 nm
- Final biomass (OD650 nm) (B. pertussis [1]; COQ396: L-cysteine 0.2 g/L): 11.0 OD650 nm
- PT concentration at end of fermentation [3]: 19 mg/L and 13 mg/L
- Specific PT production at end of fermentation [3]: 2.0 mg L^−1 mg L^−1 OD650 nm^−1 and 1.2 mg L^−1 OD650 nm^−1
- decrease in PT production compared to COQ280 [3]: 32%

Structure (SMILES): O=P([O-])(O)O.[K+] [KH2PO4]
- Final biomass (OD650 nm) (B. pertussis [1]; COQ279: KH2PO4 0.8 g/L): 9.2 OD650 nm
- Final biomass (OD650 nm) (B. pertussis [1]; COQ280: KH2PO4 0.5 g/L): 9.7 OD650 nm
- PT concentration at end of fermentation [3]: 19 mg/L and 13 mg/L
- Specific PT production at end of fermentation [3]: 2.0 mg L^−1 mg L^−1 OD650 nm^−1 and 1.4 mg L^−1 OD650 nm^−1
- decrease in PT production compared to COQ280 [3]: 32%
